# Experimental data: US4322340A, “Pharmacologically active peptides” (Eli Lilly and Company, priority 1980, dated 1982)
# Where a name gives a salt, the structure may show the parent alone.
# Columns and labels:
# [1] = tested on: mouse; test: mouse locomotor activity test (physical dependence liability); assay type: in vivo; details: group of ten mice
# Procedure: A high correlation has been established between the degree of physical dependence liability of a compound and its ability to elicit mouse locomotor activity; Cf. Goldstein et al., The Journal of Pharmacology and Experimental Therapeutics 169, 175-184 (1969); Rethy et al., The Journal of Pharmacology and Experimental Therapeutics 176, 472-479 (1971); and Brase et al., The Journal of Pharmacology and Experimental Therapeutics 201(2), 368-374 (1977).
# Mouse locomotor activity is measured using cylindrical cages of wire mesh 2 inches high and 11 inches in diameter. Six cages are enclosed in a ventilated, sound-attenuated chamber having uniform lighting. A light beam is passed through the center of the cage to a photocell on the opposite side. Two mice are placed in each cage for one hour to become acclimated to the surroundings. Five pairs of mice then are injected subcutaneously with a predetermined dose of the test compound, the remaining pair receiving saline carrier free of test compound. The mice are returned to their respective cages for three hours. The number of counts per each 15 minute period as well as the total number over the three hour period are recorded. Each interruption of the light beam constitutes a count.
# The following Table II reflects a mean of the total counts for each group of ten mice tested using a particular compound and dose level.
# [2] = tested on: mouse; test: mouse hot plate test (analgesic activity); assay type: in vivo; details: subcutaneous injection, tested 15 minutes after administration, hot plate 52° C.
# Procedure: In this test, an upright acrylic cylinder comprising, as its base, a hot plate surface which is maintained at 52° C. is used. A mouse is given, by subcutaneous injection, a predetermined amount of test compound dissolved or suspended in a suitable carrier, and, 15 minutes after administration of the test compound, the mouse is placed on the hot plate surface. The latency in seconds until the mouse jumps from the hot plate surface is measured. […] This must occur in a dose range which produces no motor incoordination or incapacitation. The following Table I records ED50 results obtained from this test. By the term "ED50 " is meant that dose which produces analgesia in 50% of the mice tested. Analgesia is defined as a response latency in the presence of test compound that is equal to or greater than the control response latency plus two standard deviations. The percent analgesia data are converted to probits, and the ED50 is calculated by regression analysis of the dose-response data. Each dose response curve must have at least four points, and each point is determined using data from a minimum of ten treated mice and ten control mice.
# [3] = Dose 128 mg./kg. subcutaneously
molecule,measurement,setting,value
"CCN(C(=O)CNC(=O)[C@@H](C)NC(=O)[C@H](Cc1ccc(O)cc1)NC)[C@@H](Cc1ccc(F)cc1)C(N)=O [Me Et p-F, reference compound]","mean of the total counts, locomotor activity over three hours",[1]; Dose 4 mg./kg. subcutaneously,431 counts
same,"mean of the total counts, locomotor activity over three hours",[1]; Dose 8 mg./kg. subcutaneously,1425 counts
same,"mean of the total counts, locomotor activity over three hours",[1]; Dose 16 mg./kg. subcutaneously,2415 counts
same,"mean of the total counts, locomotor activity over three hours",[1]; Dose 32 mg./kg. subcutaneously,2033 counts
"CN[C@@H](Cc1ccc(O)cc1)C(=O)N[C@H](C)C(=O)NCC(=O)N(CC1CC1)[C@@H](Cc1cccc(Br)c1)C(N)=O [Example 1, L-(N-Methyl)tyrosyl-D-alanyl-glycyl-L-(N-cyclopropylmethyl)-m-bromophenylalanine Amide, Acetate Salt]","mean of the total counts, locomotor activity over three hours",[1]; Dose 4 mg./kg. subcutaneously,171 counts
same,"mean of the total counts, locomotor activity over three hours",[1]; Dose 8 mg./kg. subcutaneously,140 counts
same,"mean of the total counts, locomotor activity over three hours",[1]; Dose 16 mg./kg. subcutaneously,276 counts
same,"mean of the total counts, locomotor activity over three hours",[1]; Dose 32 mg./kg. subcutaneously,320 counts
same,"mean of the total counts, locomotor activity over three hours",[1]; Dose 64 mg./kg. subcutaneously,1888 counts
same,"mean of the total counts, locomotor activity over three hours",[1]; [3],2159 counts
"CCN(C(=O)CNC(=O)[C@@H](C)NC(=O)[C@H](Cc1ccc(O)cc1)NC)[C@@H](Cc1cccc(C)c1)C(N)=O [Example 4, L-(N-Methyl)tyrosyl-D-alanyl-glycyl-L-(N-ethyl)-m-methyl-phenylalanine Amide, Acetate Salt]","Analgesic Activity, Hot Plate Test, ED50",[2],3 µg/kg
same,"mean of the total counts, locomotor activity over three hours",[1]; Dose 4 mg./kg. subcutaneously,173 counts
same,"mean of the total counts, locomotor activity over three hours",[1]; Dose 8 mg./kg. subcutaneously,255 counts
same,"mean of the total counts, locomotor activity over three hours",[1]; Dose 16 mg./kg. subcutaneously,537 counts
same,"mean of the total counts, locomotor activity over three hours",[1]; Dose 32 mg./kg. subcutaneously,1176 counts
same,"mean of the total counts, locomotor activity over three hours",[1]; Dose 64 mg./kg. subcutaneously,3231 counts
same,"mean of the total counts, locomotor activity over three hours",[1]; [3],3852 counts
"CCN(C(=O)CNC(=O)[C@@H](C)NC(=O)[C@H](Cc1ccc(O)cc1)NC)[C@@H](Cc1cccc(Br)c1)C(N)=O [Example 2, L-(N-Methyl)tyrosyl-D-alanyl-glycyl-L-(N-ethyl)-m-bromophenylalanine Amide, Acetate Salt]","Analgesic Activity, Hot Plate Test, ED50",[2],3 µg/kg
same,"mean of the total counts, locomotor activity over three hours",[1]; Dose 4 mg./kg. subcutaneously,142 counts
same,"mean of the total counts, locomotor activity over three hours",[1]; Dose 8 mg./kg. subcutaneously,235 counts
same,"mean of the total counts, locomotor activity over three hours",[1]; Dose 16 mg./kg. subcutaneously,358 counts
same,"mean of the total counts, locomotor activity over three hours",[1]; Dose 32 mg./kg. subcutaneously,701 counts
same,"mean of the total counts, locomotor activity over three hours",[1]; Dose 64 mg./kg. subcutaneously,2523 counts
same,"mean of the total counts, locomotor activity over three hours",[1]; [3],5153 counts
"CCN(C(=O)CNC(=O)[C@@H](C)NC(=O)[C@@H](N)Cc1ccc(O)cc1)[C@@H](Cc1cccc(I)c1)C(N)=O [Example 7, L-Tyrosyl-D-alanyl-glycyl-L-(N-ethyl)-m-iodophenylalanine Amide, Acetate Salt]","Analgesic Activity, Hot Plate Test, ED50",[2],1.9 µg/kg
same,"mean of the total counts, locomotor activity over three hours",[1]; Dose 4 mg./kg. subcutaneously,178 counts
same,"mean of the total counts, locomotor activity over three hours",[1]; Dose 8 mg./kg. subcutaneously,174 counts
same,"mean of the total counts, locomotor activity over three hours",[1]; Dose 16 mg./kg. subcutaneously,363 counts
same,"mean of the total counts, locomotor activity over three hours",[1]; Dose 32 mg./kg. subcutaneously,852 counts
same,"mean of the total counts, locomotor activity over three hours",[1]; Dose 64 mg./kg. subcutaneously,1630 counts
same,"mean of the total counts, locomotor activity over three hours",[1]; [3],2871 counts
"CCN(C(=O)CNC(=O)[C@@H](C)NC(=O)[C@@H](N)Cc1ccc(O)cc1)[C@@H](Cc1ccccc1)C(N)=O [H Et H, reference compound]","mean of the total counts, locomotor activity over three hours",[1]; Dose 4 mg./kg. subcutaneously,704 counts
same,"mean of the total counts, locomotor activity over three hours",[1]; Dose 8 mg./kg. subcutaneously,1204 counts
same,"mean of the total counts, locomotor activity over three hours",[1]; Dose 16 mg./kg. subcutaneously,2916 counts
same,"mean of the total counts, locomotor activity over three hours",[1]; Dose 32 mg./kg. subcutaneously,3528 counts
"L-Tyrosyl-D-alanyl-glycyl-L-(N-ethyl)-m-bromophenylalanine Amide, Acetate Salt [Example 3]","Analgesic Activity, Hot Plate Test, ED50",[2],4.9 µg/kg
same,"mean of the total counts, locomotor activity over three hours",[1]; Dose 8 mg./kg. subcutaneously,200 counts
same,"mean of the total counts, locomotor activity over three hours",[1]; Dose 16 mg./kg. subcutaneously,512 counts
same,"mean of the total counts, locomotor activity over three hours",[1]; Dose 32 mg./kg. subcutaneously,1092 counts
same,"mean of the total counts, locomotor activity over three hours",[1]; Dose 64 mg./kg. subcutaneously,2820 counts
"CCN(C(=O)CNC(=O)[C@@H](C)NC(=O)[C@H](Cc1ccc(O)cc1)NC)[C@@H](Cc1cccc(Cl)c1)C(N)=O [Example 6, L-(N-Methyl)tyrosyl-D-alanyl-glycyl-L-(N-ethyl)-m-chlorophenylalanine Amide, Acetate Salt]","Analgesic Activity, Hot Plate Test, ED50",[2],1.8 µg/kg
same,"mean of the total counts, locomotor activity over three hours",[1]; Dose 4 mg./kg. subcutaneously,148 counts
same,"mean of the total counts, locomotor activity over three hours",[1]; Dose 8 mg./kg. subcutaneously,304 counts
same,"mean of the total counts, locomotor activity over three hours",[1]; Dose 16 mg./kg. subcutaneously,796 counts
same,"mean of the total counts, locomotor activity over three hours",[1]; Dose 32 mg./kg. subcutaneously,1978 counts
same,"mean of the total counts, locomotor activity over three hours",[1]; Dose 64 mg./kg. subcutaneously,4477 counts
same,"mean of the total counts, locomotor activity over three hours",[1]; [3],3476 counts
"CCN(C(=O)CNC(=O)[C@@H](C)NC(=O)[C@@H](N)Cc1ccc(O)cc1)[C@@H](Cc1cccc(Cl)c1)C(N)=O [Example 5, L-Tyrosyl-D-alanyl-glycyl-L-(N-ethyl)-m-chlorophenylalanine Amide, Acetate Salt]","Analgesic Activity, Hot Plate Test, ED50",[2],0.3 µg/kg
same,"mean of the total counts, locomotor activity over three hours",[1]; Dose 4 mg./kg. subcutaneously,125 counts
same,"mean of the total counts, locomotor activity over three hours",[1]; Dose 8 mg./kg. subcutaneously,613 counts
same,"mean of the total counts, locomotor activity over three hours",[1]; Dose 16 mg./kg. subcutaneously,819 counts
same,"mean of the total counts, locomotor activity over three hours",[1]; Dose 32 mg./kg. subcutaneously,2388 counts
same,"mean of the total counts, locomotor activity over three hours",[1]; Dose 64 mg./kg. subcutaneously,3667 counts
same,"mean of the total counts, locomotor activity over three hours",[1]; [3],2807 counts
